In article PMC7180456, “Multitarget Anticancer Agents Based on Histone Deacetylase and Protein Kinase CK2 Inhibitors” (Molecules, 2020):

Columns and labels:
CK2 = conditions: Figure 1; read-out: IC50 of representative CK2 inhibitors; cited from earlier work
human recombinant HDAC1 = target: T1, human recombinant HDAC1 (Homo sapiens, UniProt Q13547); experiment: HDAC1 inhibition, fluorometric method (Enzo Fluorometric Drug Discovery Assay Kit); assay type: biochemical; conditions: read-out: Inhibitory activity IC50 on HDAC1
T1 construct: purchased Enzo Life Sciences, Inc
T1 sequence (Q13547 whole entry): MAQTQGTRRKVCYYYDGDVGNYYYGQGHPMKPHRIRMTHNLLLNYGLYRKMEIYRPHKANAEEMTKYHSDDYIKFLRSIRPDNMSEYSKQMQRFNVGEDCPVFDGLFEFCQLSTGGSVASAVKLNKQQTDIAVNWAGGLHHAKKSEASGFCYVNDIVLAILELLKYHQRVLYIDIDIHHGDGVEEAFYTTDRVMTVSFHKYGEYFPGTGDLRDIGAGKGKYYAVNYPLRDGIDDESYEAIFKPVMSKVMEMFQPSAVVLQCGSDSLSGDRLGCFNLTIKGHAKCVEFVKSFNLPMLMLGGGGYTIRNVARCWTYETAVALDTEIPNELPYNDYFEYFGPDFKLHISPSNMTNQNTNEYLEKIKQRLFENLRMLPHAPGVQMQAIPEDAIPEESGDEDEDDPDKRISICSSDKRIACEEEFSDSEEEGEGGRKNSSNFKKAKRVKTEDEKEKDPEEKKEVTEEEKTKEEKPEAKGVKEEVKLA
Experimental: The inhibitory activities of the synthesized compounds were determined against CK2 and HDAC1 and the IC50 values are collected in Table 1. The activity towards human recombinant HDAC1 was tested using a fluorometric method. CK2 inhibitory activity was determined by a radiometric method, using a short peptide ([…]) as a substrate.
(§1) 15 µL of HDAC1 (0.4 µg/well) or HDAC6 (0.5 µg/well) were incubated at 37 °C for 30 minutes with 10 µL of inhibitor diluted in 5% DMSO and 25 µL of fluorogenic substrate (0.05 µL/well of 5 mM solution). Reactions were stopped with the developer and trichostatin A, diluted in buffer without BSA, and the plate was incubated at 30 °C for 45 min, followed by measuring the fluorescence (Ex. 360 nm, Em. 450 nm, Fluoroskan, Thermo Scientific).

human recombinant CK2α = target: T2, human recombinant CK2α (Homo sapiens, UniProt P68400); experiment: CK2 inhibition, radiometric method with peptide substrate […]; assay type: biochemical; conditions: for fold less active in CK2 (than in HDAC1): CK2 IC50 versus HDAC1 IC50; for IC50: radiometric method, 20 µM ATP, read-out: Inhibitory activity IC50 on CK2
T2 construct: GST; made in house; host or cells: bacteria
T2 sequence (P68400 whole entry): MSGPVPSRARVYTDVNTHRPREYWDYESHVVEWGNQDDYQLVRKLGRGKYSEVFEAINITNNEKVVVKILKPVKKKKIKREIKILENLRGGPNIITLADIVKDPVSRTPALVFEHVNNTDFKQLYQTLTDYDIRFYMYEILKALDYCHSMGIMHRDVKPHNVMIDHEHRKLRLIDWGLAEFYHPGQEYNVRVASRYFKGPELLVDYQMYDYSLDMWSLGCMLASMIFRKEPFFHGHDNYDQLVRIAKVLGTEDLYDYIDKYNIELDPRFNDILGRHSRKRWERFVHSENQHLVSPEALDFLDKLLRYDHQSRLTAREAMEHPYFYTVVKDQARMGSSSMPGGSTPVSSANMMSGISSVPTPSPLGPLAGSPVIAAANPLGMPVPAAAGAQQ
Experimental: The activity towards human recombinant HDAC1 was tested using a fluorometric method. CK2 inhibitory activity was determined by a radiometric method, using a short peptide ([…]) as a substrate.
Recombinant human protein kinase GST-CK2 was produced in bacteria and purified as described elsewhere. […] The reaction buffer contained 20 µM [γ-32P] ATP (specific radioactivity 300–1000 cpm/pmol), 15 mM Mg^2+, 20 mM Tris–HCl pH 7.5, and 6 mM 2-mercaptoethanol. 10 µL of the assay mixture was spotted onto a square (1 cm/1 cm) of Whatman P81 paper and allowed to dry. Each square was immersed in cold 0.5% phosphoric acid, and washed three times during 10 min, allowed to dry and transferred into a vessel containing Opti-Phase liquid (scintillation solution) and radioactivity was quantified using a scintillation counter (MicroBeta, Perkin Elmer) by Cerenkov counting. All experiments were performed in triplicate. IC50 values were calculated using GraphPad Prism (version 4.0) software.

HDAC6 = target: T3, HDAC6 (Homo sapiens, UniProt Q9UBN7); experiment: HDAC6 inhibition, fluorometric method (Enzo Fluorometric Drug Discovery Assay Kit); assay type: biochemical; conditions: read-out: Inhibitory activity IC50 on HDAC6
T3 construct: purchased Enzo Life Sciences, Inc
T3 sequence (Q9UBN7 1-1215): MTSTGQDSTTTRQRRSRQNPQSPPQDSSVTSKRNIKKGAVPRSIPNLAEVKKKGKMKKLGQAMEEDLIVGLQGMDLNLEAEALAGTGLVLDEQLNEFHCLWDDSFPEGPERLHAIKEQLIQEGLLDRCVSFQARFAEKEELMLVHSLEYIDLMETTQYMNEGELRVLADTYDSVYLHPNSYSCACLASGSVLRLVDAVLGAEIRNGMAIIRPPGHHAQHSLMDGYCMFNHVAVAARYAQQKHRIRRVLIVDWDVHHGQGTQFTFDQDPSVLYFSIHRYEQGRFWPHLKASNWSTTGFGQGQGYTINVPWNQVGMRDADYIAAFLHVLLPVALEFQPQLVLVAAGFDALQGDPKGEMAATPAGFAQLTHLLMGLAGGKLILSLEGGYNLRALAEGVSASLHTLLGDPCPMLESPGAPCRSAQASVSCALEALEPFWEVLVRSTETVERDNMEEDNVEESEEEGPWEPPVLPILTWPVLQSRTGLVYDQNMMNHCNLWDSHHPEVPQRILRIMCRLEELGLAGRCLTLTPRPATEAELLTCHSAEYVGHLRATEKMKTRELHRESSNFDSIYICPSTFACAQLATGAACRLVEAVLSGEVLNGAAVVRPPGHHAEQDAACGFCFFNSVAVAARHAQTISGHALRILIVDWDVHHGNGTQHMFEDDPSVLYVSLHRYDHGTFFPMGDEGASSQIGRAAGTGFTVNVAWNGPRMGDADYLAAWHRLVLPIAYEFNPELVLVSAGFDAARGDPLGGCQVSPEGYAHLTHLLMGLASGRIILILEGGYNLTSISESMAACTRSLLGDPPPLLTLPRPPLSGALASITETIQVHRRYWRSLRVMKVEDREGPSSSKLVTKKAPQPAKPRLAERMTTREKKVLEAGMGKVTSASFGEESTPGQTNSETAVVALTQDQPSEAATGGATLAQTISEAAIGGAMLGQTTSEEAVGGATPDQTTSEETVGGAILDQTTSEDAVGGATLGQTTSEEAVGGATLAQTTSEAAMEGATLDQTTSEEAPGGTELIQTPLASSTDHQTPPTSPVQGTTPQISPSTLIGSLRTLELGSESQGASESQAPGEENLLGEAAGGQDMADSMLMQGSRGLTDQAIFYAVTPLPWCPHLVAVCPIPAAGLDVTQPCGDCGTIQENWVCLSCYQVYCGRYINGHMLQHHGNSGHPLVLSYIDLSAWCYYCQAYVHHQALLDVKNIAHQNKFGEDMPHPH
Experimental: For this reason, we analyzed the activity of 15 and 19, together with other compounds from the alkyl and triazole series in HDAC6, tested using a fluorometric method (Table 1).
as §1

IC50 (human recombinant HDAC1) [µM] | fold less active in CK2 (than in HDAC1) (human recombinant CK2α) [fold] | IC50 (human recombinant CK2α) [µM] | IC50 (HDAC6) [µM] | Structure (SMILES) | IC50 (CK2) [µM]
1.43 | 60 | 85.1 |  | CN(C)c1nc2c(Br)c(Br)c(Br)c(Br)c2n1Cc1cn(CCCC(=O)NO)nn1 [Compound 7a, N-Hydroxy-4-(4-((4,5,6,7-tetrabromo-2-(dimethylamino)-1H-benzo[d]imidazol-1-yl)methyl)-1H-1,2,3-triazol-1-yl)butanamide] | 
2.25 | 22 | 50.1 | 2.41 | CN(C)c1nc2c(Br)c(Br)c(Br)c(Br)c2n1Cc1cn(CCCCC(=O)NO)nn1 [Compound 7b, N-Hydroxy-5-(4-((4,5,6,7-tetrabromo-2-(dimethylamino)-1H-benzo[d]imidazol-1-yl)methyl)-1H-1,2,3-triazol-1-yl)pentanamide] | 
10.2 |  | 53.8 |  | CN(C)c1nc2c(Br)c(Br)c(Br)c(Br)c2n1CCc1cn(CCCC(=O)NO)nn1 [Compound 7d, N-Hydroxy-4-(4-(2-(4,5,6,7-tetrabromo-2-(dimethylamino)-1H-benzo[d]imidazol-1-yl)ethyl)-1H-1,2,3-triazol-1-yl)butanamide] | 
62 |  | 34.2 |  | CN(C)c1nc2c(Br)c(Br)c(Br)c(Br)c2n1CCCCC(=O)NO [Compound 11a, N-Hydroxy-5-(4,5,6,7-tetrabromo-2-(dimethylamino)-1H-benzo[d]imidazol-1-yl)pentanamide] | 
4.22 |  | 136 | 2.7 | O=C(NO)c1ccc(Cn2nnc3c(Br)c(Br)c(Br)c(Br)c32)cc1 [Compound 15b, N-Hydroxy-4-((tetrabromo-1H-benzo[d][1,2,3]triazol-1-yl)methyl)benzamide] | 
 |  |  |  | O=c1oc2c(O)c(O)cc3c(=O)oc4c(O)c(O)cc1c4c23 [Ellagic acid] | 0.04
 |  |  |  | O=c1c(O)c(-c2ccc(O)c(O)c2)oc2cc(O)ccc12 [Fisetin] | 0.35
